Earlier results, collected in patent US20080293652A1, “Combination of Ad-P53 and Chemotherapy for the Treatment of Tumours” (priority 2004, published 2008).
Numbered stars: 1 amine (or outer) side, 2 acyl side, 3 side chain; on linkers, the order of the positions; unused ones are H or OH. Bridge positions count the residues as written; N and C are the ends. Square brackets hold non-standard residues; d marks the D form. Peptide text beside a SMILES is read from it. I, II: the chains in the order shown. Actinocin(9to1) = Cc1c2oc3c(C)ccc(C(=O)[*:1])c3nc-2c(C(=O)[*:2])c(N)c1=O; NMeV = CN[C@H](C(=O)O)C(C)C; Sar = CNCC(=O)O

Columns and labels:
[1] = for part of the dose excreted / detected intact in the urine: in vivo
multiple myeloma = conditions: oral administration

| Structure (SMILES) | part of the dose excreted / detected intact in the urine [1] | other results |
| --- | --- | --- |
| Cc1c2oc3c(C)ccc(C(=O)N[C@@H]4C(=O)N[C@H](C(C)C)C(=O)N5CCC[C@H]5C(=O)N(C)CC(=O)N(C)[C@@H](C(C)C)C(=O)O[C@@H]4C)c3nc-2c(C(=O)N[C@@H]2C(=O)N[C@H](C(C)C)C(=O)N3CCC[C@H]3C(=O)N(C)CC(=O)N(C)[C@@H](C(C)C)C(=O)O[C@@H]2C)c(N)c1=O [Actinomycin D] (I: T[dV]P[Sar][NMeV] / II: T[dV]P[Sar][NMeV]; ester I:1-I:C, II:1-II:C; linker I:N-II:N via Actinocin(9to1)) | 10% |  |
| N[C@@H](Cc1ccc(N(CCCl)CCCl)cc1)C(=O)O [Melphalan, 4-[bis(2-chloroethyl)amino]-L-phenylalanine] |  | part of patients showing a favorable response (multiple myeloma): one third to one half |
| CC[C@]1(O)C[C@@H]2CN(CCc3c([nH]c4ccccc34)[C@@](C(=O)OC)(c3cc4c(cc3OC)N(C)[C@H]3[C@@](O)(C(=O)OC)[C@H](OC(C)=O)[C@]5(CC)C=CCN6CC[C@]43[C@@H]65)C2)C1 [Vinblastine] | Approximately 15% |  |
| CC[C@]1(O)C[C@H]2CN(CCc3c([nH]c4ccccc34)[C@@](C(=O)OC)(c3cc4c(cc3OC)N(C=O)[C@H]3[C@@](O)(C(=O)OC)[C@H](OC(C)=O)[C@]5(CC)C=CCN6CC[C@]43[C@@H]65)C2)C1 [Vincristine] |  | terminal half-life (clearance from plasma) ([1]; multiphasic clearance): about 24 hours |
